Measured values published in patent US8871269B2, “Method for the preparation of controlled release formulations” (Evonik Corporation, priority 2003, dated 2014).

Assay: Stability of free peptide incubated in release medium (HPLC)
Format: physicochemical
Conditions: free peptide incubated in release medium (PBS, pH 7.2, 37 C), after 49 days
Description: Octreotide acetate as the free peptide was measured to be 95% intact by high-pressure liquid chromatography (HPLC) following incubation in the release medium (PBS, pH 7.2, 37° C.) after 49 days. In contrast, incubation of octreotide acetate PLGA microparticle formulations produced 55% of modified peptide species after 70 days in the release medium (PBS, pH 7.2, 37° C., Table 2). […] The masses found were consistent with random acylation, for example, peptide plus one or two glycolic or lactic acid monomers in any combination. It may be that acylation products arise from attack on PLGA fragments or the polymer backbone by nucleophilic moieties in octreotide. At a lower pH these moieties likely would be protonated reducing their nucleophilicity and consequently the amount of acylated product. It was observed that formation of acylated byproducts for octreotide acetate PLGA microparticles incubated in 100 mM sodium acetate (NaOAc, pH 4.0) buffer was reduced to 1.25% at 49 days, in marked contrast to the results for PBS buffer (55%).

## C[C@@H](O)[C@@H]1NC(=O)[C@H](CCCCN)NC(=O)[C@@H](Cc2c[nH]c3ccccc23)NC(=O)[C@H](Cc2ccccc2)NC(=O)[C@@H](NC(=O)[C@H](N)Cc2ccccc2)CSSC[C@@H](C(=O)N[C@H](CO)[C@@H](C)O)NC1=O [Octreotide acetate]
  Peptide intact by HPLC: 95%
